Test results published in patent publication US4902799A, “Bicyclic alkoxy- and alkylthio-substituted aminoalcohols” (Maggioni-Winthrop S.p.A., priority 1985, dated 1990).
Read-outs that look alike come from different tables or passages of the source.

Experiments:
platelet aggregation = test: Collagen-induced platelet aggregation ex vivo; format: in vivo, rat; settings: 0.15 mM/kg oral, blood 1 hr after treatment, collagen 2-4 mcg/ml
[1] = molecular target: alpha1-adrenergic receptors; settings: (a) Qian et al. 1983 for Tibalosine; (b) Van Zwieten et al. 1985 for Urapidil; cited from earlier work
[2] = molecular target: T1, alpha2-adrenergic receptors (Rattus norvegicus, UniProt P22909); settings: (a) Qian et al. 1983 for Tibalosine; (b) Van Zwieten et al. 1985 for Urapidil; cited from earlier work
T1 construct: from tissue; host or cells: rat brain membranes
T1 sequence (P22909 1-465): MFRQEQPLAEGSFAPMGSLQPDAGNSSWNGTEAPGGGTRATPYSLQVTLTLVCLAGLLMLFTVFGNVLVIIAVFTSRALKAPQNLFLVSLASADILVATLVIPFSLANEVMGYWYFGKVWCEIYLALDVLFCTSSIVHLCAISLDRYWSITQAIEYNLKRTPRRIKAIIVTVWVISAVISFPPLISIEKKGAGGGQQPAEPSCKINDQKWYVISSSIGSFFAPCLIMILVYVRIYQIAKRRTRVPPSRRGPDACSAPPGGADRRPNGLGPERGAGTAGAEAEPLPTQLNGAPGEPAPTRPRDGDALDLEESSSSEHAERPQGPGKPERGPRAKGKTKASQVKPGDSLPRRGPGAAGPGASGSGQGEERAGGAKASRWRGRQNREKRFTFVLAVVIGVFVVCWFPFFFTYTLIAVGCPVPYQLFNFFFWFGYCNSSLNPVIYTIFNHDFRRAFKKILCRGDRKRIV

[3] = system: SH rats (spontaneously hypertensive rats); test: Anti-hypertensive activity in spontaneously hypertensive rats, tail artery plethysmography; format: in vivo, rat; settings: SHR
Experimental: The anti-hypertensive activity was tested on groups of 5 SH rats (spontaneously hypertensive rats) weighing 200±10 g, fasting for 18 hrs and treated orally with the invention compounds suspended in 2.5% gum arabic.
Changes in blood pressure (mm Hg) before (T=0) and after treatment (2, 4 and 6 hrs) were measured according to the method of tail artery plethysmography reported in "Spontaneously hypertensive rats (SHR): Guidlines for breeding, care and use", SHR Conference, 1976, page 11.
The arterial pressure before the treatment was 210±10 mmHg.

toxic adrenaline doses = test: animal or person; format: in vivo, mouse (male mice CrI:CD 1(CR) BR); settings: Mus musculus, po, 24 h, read-out: PD50 (50% protective dose)
Normolipemic rats [4] = settings: "as known"; cited from earlier work
Normolipemic rats [5] = test: Hypolipemic activity in normolipemic rats; format: in vivo, rat (Sprague Dawley Nos male rats)
male mice [6] = test: Anti-hypoxic activity (gasping time after decapitation); format: in vivo; settings: Mus musculus, po, read-out: Gasping time, % diff. from control
in vivo = settings: mouse, po
male mice [7] = settings: mouse, in vivo, po

COc1ccc2cc(C(O)C(C)N3CCN(C(=O)C=Cc4cc(OC)c(OC)c(OC)c4)CC3)ccc2c1 (centres unmarked) [MG 28472, 2-[4-(1-Oxo-3-(3,4,5-trimethoxyphenyl)-2-propenyl)-1-piperazinyl]-1-(6-methoxy-2-naphthyl)-propanol]
% Inhibition, Aggregation rate (platelet aggregation): 65.3% | % Inhibition, Maximum aggregation (platelet aggregation): 75.7%

CC(NCCCCc1ccccc1)C(O)c1ccc2c(c1)CCS2 (centres unmarked) [Tibalosine]
IC50 [1]: 0.4 µM | IC50 [2]: 1000 µM | Max. changes in systolic pressure ([3]; 1 mg/kg p.o.): ~ 0 mmHg | Max. changes in systolic pressure ([3]; 5 mg/kg p.o.): -13.2 mmHg | Max. changes in systolic pressure ([3]; 15 mg/kg p.o.): -67 mmHg

Cc1ccc(N(CC2=NCCN2)c2cccc(O)c2)cc1 [Phentolamine]
ED50 (toxic adrenaline doses): 8 mg/kg

CCOC(=O)C(C)(C)Oc1ccc(Cl)cc1 [Clofibrate, reference compound]
liver increase (in words) (Normolipemic rats [4]): significative liver increase | CHOL, % different from control (Normolipemic rats [5]; 0.82 mM/kg/p.o. × 4 days): -15.0% | CHOL-HDL, % different from control (Normolipemic rats [5]; 0.82 mM/kg/p.o. × 4 days): 0% | Liver Weight, % different from control (Normolipemic rats [5]; 0.82 mM/kg/p.o. × 4 days): +19.5% | TG, % different from control (Normolipemic rats [5]; 0.82 mM/kg/p.o. × 4 days): -40.0%

COc1ccc2cc(C(O)C(C)N3CCN(C(=O)C=Cc4ccccc4)CC3)ccc2c1 (centres unmarked) [MG 38071, 2-[4-(1-Oxo-3-phenyl-2-propenyl)-1-piperazinyl]-1-(6-methoxy-2-naphthyl)-propanol]
change in vivo at 100 mg/kg (male mice [6]; 100 mg/kg/p.o., pretreatment 90 min): 32.7%

CSc1ccc2cc(C(O)C(C)N3CCN(C(=O)c4ccco4)CC3)ccc2c1 (centres unmarked) [MG 28451, 2-[4-(2-Furoyl)-1-piperazinyl]-1-(6-methylthio-2-naphthyl)-propanol]
CHOL, % different from control (Normolipemic rats [5]; 0.37 mM/kg/p.o. × 4 days): -13.5% | CHOL-HDL, % different from control (Normolipemic rats [5]; 0.37 mM/kg/p.o. × 4 days): +46.5% | Liver Weight, % different from control (Normolipemic rats [5]; 0.37 mM/kg/p.o. × 4 days): +9.2% | TG, % different from control (Normolipemic rats [5]; 0.37 mM/kg/p.o. × 4 days): -48.2% | CHOL-HDL (in words) (Normolipemic rats [5]; oral): increase of CHOL-HDL | serum TG (in words) (Normolipemic rats [5]; oral): significative decrease of serum TG | LD50 (in vivo): > 1000 mg/kg

COc1cc2nc(N3CCN(C(=O)c4ccco4)CC3)nc(N)c2cc1OC [Prazosin]
ED50 (toxic adrenaline doses): 0.7 mg/kg

COc1ccc2cc(C(O)C(C)N3CCN(c4ccccc4)CC3)ccc2c1 (centres unmarked) [MG 38088, 2-(4-Phenyl-1-piperazinyl)-1-(6-methoxy-2-naphthyl)-propanol]
CHOL, % different from control (Normolipemic rats [5]; 0.185 mM/kg/p.o. × 4 days): -35.1% | CHOL-HDL, % different from control (Normolipemic rats [5]; 0.185 mM/kg/p.o. × 4 days): -9.1% | Liver Weight, % different from control (Normolipemic rats [5]; 0.185 mM/kg/p.o. × 4 days): 0% | TG, % different from control (Normolipemic rats [5]; 0.185 mM/kg/p.o. × 4 days): -70.5% | CHOL, % different from control (Normolipemic rats [5]; 0.37 mM/kg/p.o. × 4 days): -41.3% | CHOL-HDL, % different from control (Normolipemic rats [5]; 0.37 mM/kg/p.o. × 4 days): +5.4% | Liver Weight, % different from control (Normolipemic rats [5]; 0.37 mM/kg/p.o. × 4 days): +3.4% | TG, % different from control (Normolipemic rats [5]; 0.37 mM/kg/p.o. × 4 days): -68.5% | LD50 (male mice [7]): higher than 1000 mg/kg | % Inhibition, Aggregation rate (platelet aggregation): 75.1% | % Inhibition, Maximum aggregation (platelet aggregation): 68.6% | change in vivo at 100 mg/kg (male mice [6]): 46.8% | ED50 (toxic adrenaline doses): 13.5 mg/kg

COc1ccc2cc(C(O)C(C)N3CCN(C(=O)c4ccco4)CC3)ccc2c1 (centres unmarked) [MG 38078, 2-[4-(2-Furoyl)-1-piperazinyl]-1-(6-methoxy-2-naphthyl)-propanol]
% Inhibition, Aggregation rate (platelet aggregation): 64.0% | % Inhibition, Maximum aggregation (platelet aggregation): 70.4% | LD50 (in vivo): > 2000 mg/kg

Clc1ccccc1CN1CCc2sccc2C1 [Ticlopidine, reference compound]
% Inhibition, Aggregation rate (platelet aggregation): 56.0% | % Inhibition, Maximum aggregation (platelet aggregation): 70.0%

Fc1ccc(C(c2ccc(F)cc2)N2CCN(C/C=C/c3ccccc3)CC2)cc1 [Flunarizine, reference compound]
change in vivo at 50 mg/kg (male mice [6]; 50 mg/kg/p.o., pretreatment 90 min): 68.7%
